Measurements published in US20210047304A1, “Bromodomain Inhibitors” (AbbVie Inc., priority 2016, published 2021).

These molecules were tested against BRD4 (BDI_K57-E168) (Homo sapiens, UniProt O60885) (assay: TR-FRET bromodomain binding assay, BRD4 BDI).

Structure (SMILES) | Ki [nM]
Cc1ccc(=O)n([C@H]2CC[C@H](Oc3cc(=O)n(C)cc3-c3cc(C(C)(C)O)ccc3Oc3c(C)cc(F)cc3C)CC2)n1 [Example 130, 2-[trans-4-({5-[2-(4-fluoro-2,6-dimethylphenoxy)-5-(2-hydroxypropan-2-yl)phenyl]-1-methyl-2-oxo-1,2-dihydropyridin-4-yl}oxy)cyclohexyl]-6-methylpyridazin-3(2H)-one] | 3190
Cc1cc(F)cc(C)c1Oc1ccc(C(C)(C)O)cc1-c1cn(C)c(=O)cc1O[C@H]1CC[C@H](NC(=O)C2(C)CC(=O)C2)CC1 [Example 87, N-[trans-4-({5-[2-(4-fluoro-2,6-dimethylphenoxy)-5-(2-hydroxypropan-2-yl)phenyl]-1-methyl-2-oxo-1,2-dihydropyridin-4-yl}oxy)cyclohexyl]-1-methyl-3-oxocyclobutane-1-carboxamide] | 2430
Cc1cc(F)cc(C)c1Oc1ccc(C(C)(C)O)cc1-c1cn(C)c(=O)cc1O[C@H]1CC[C@H](N2NCCC2=O)CC1 [Example 109, 5-[2-(4-fluoro-2,6-dimethylphenoxy)-5-(2-hydroxypropan-2-yl)phenyl]-1-methyl-4-{[trans-4-(5-oxopyrazolidin-1-yl)cyclohexyl]oxy}pyridin-2(1H)-one] | > 13000
Cc1cc(F)cc(C)c1Oc1ccc(C(C)(C)O)cc1-c1cn(C)c(=O)cc1O[C@H]1CC[C@H](NC(=O)CCC(C)(C)O)CC1 [Example 119, N-[trans-4-({5-[2-(4-fluoro-2,6-dimethylphenoxy)-5-(2-hydroxypropan-2-yl)phenyl]-1-methyl-2-oxo-1,2-dihydropyridin-4-yl}oxy)cyclohexyl]-4-hydroxy-4-methylpentanamide] | 2810
Cc1cc(F)cc(C)c1Oc1ccc(C(C)(C)O)cc1-c1cn(C)c(=O)cc1O[C@H]1CC[C@H](N2CCCCC2=O)CC1 [Example 29, 5-[2-(4-fluoro-2,6-dimethylphenoxy)-5-(2-hydroxypropan-2-yl)phenyl]-1-methyl-4-{[trans-4-(2-oxopiperidin-1-yl)cyclohexyl]oxy}pyridin-2(1H)-one] | 2220
Cc1cc(F)cc(C)c1Oc1ccc(C(C)(C)O)cc1-c1cn(C)c(=O)cc1O[C@H]1CC[C@H](N2C(=O)NC3(CC3)C2=O)CC1 [Example 136, 6-[trans-4-({5-[2-(4-fluoro-2,6-dimethylphenoxy)-5-(2-hydroxypropan-2-yl)phenyl]-1-methyl-2-oxo-1,2-dihydropyridin-4-yl}oxy)cyclohexyl]-4,6-diazaspiro[2.4]heptane-5,7-dione] | 2470
Cc1cc(F)cc(C)c1Oc1ccc(C(C)(C)O)cc1-c1cn(C)c(=O)cc1O[C@H]1CC[C@H](NC(=O)C(F)(F)F)CC1 [Example 117, 2,2,2-trifluoro-N-[trans-4-({5-[2-(4-fluoro-2,6-dimethylphenoxy)-5-(2-hydroxypropan-2-yl)phenyl]-1-methyl-2-oxo-1,2-dihydropyridin-4-yl}oxy)cyclohexyl]acetamide] | 3570
Cc1cc(F)cc(C)c1Oc1ccc(C(C)(C)O)cc1-c1cn(C)c(=O)cc1O[C@H]1CC[C@H](N2C(=O)C3COCCN3C2=O)CC1 (relative stereo) [Example 126, 2-[trans-4-({5-[2-(4-fluoro-2,6-dimethylphenoxy)-5-(2-hydroxypropan-2-yl)phenyl]-1-methyl-2-oxo-1,2-dihydropyridin-4-yl}oxy)cyclohexyl]tetrahydro-1H-imidazo[5,1-c][1,4]oxazine-1,3(2H)-dione] | > 13000
Cc1cc(F)cc(C)c1Oc1ccc(C(C)(C)O)cc1-c1cn(C)c(=O)cc1O[C@H]1CC[C@H](NC(=O)C2(C)COC2)CC1 [Example 73, N-[trans-4-({5-[2-(4-fluoro-2,6-dimethylphenoxy)-5-(2-hydroxypropan-2-yl)phenyl]-1-methyl-2-oxo-1,2-dihydropyridin-4-yl}oxy)cyclohexyl]-3-methyloxetane-3-carboxamide] | 2260
Cc1cc(F)cc(C)c1Oc1ccc(C(C)(C)O)cc1-c1cn(C)c(=O)cc1O[C@H]1CC[C@@H](NNC(=O)OC(C)(C)C)CC1 [Example 107, tert-butyl 2-[cis-4-({5-[2-(4-fluoro-2,6-dimethylphenoxy)-5-(2-hydroxypropan-2-yl)phenyl]-1-methyl-2-oxo-1,2-dihydropyridin-4-yl}oxy)cyclohexyl]hydrazine-1-carboxylate] | 1790
Cc1cccc(C)c1Oc1ccc(CN(C)C(N)=O)cc1-c1cn(C)c(=O)cc1O[C@H]1CC[C@H](NC(=O)C2(C)CC2)CC1 [Example 115, N-[trans-4-({5-[5-{[carbamoyl(methyl)amino]methyl}-2-(2,6-dimethylphenoxy)phenyl]-1-methyl-2-oxo-1,2-dihydropyridin-4-yl}oxy)cyclohexyl]-1-methylcyclopropane-1-carboxamide] | 2920

Now those with a lower Ki, led by results:

Ki [nM] | Structure (SMILES)
1670 | Cc1cc(F)cc(C)c1Oc1ccc(C(C)(C)O)cc1-c1cn(C)c(=O)cc1O[C@H]1CC[C@H](N2C(=O)C(C)(C)N(C)C2C)CC1 (relative stereo) [Example 134, 5-[2-(4-fluoro-2,6-dimethylphenoxy)-5-(2-hydroxypropan-2-yl)phenyl]-1-methyl-4-{[trans-4-(2,3,4,4-tetramethyl-5-oxoimidazolidin-1-yl)cyclohexyl]oxy}pyridin-2(1H)-one]
1450 | COC(=O)N[C@H]1CC[C@H](Oc2cc(=O)n(C)cc2-c2cc(C(C)(C)O)ccc2Oc2c(C)cc(F)cc2C)CC1 [Example 4, methyl [trans-4-({5-[2-(4-fluoro-2,6-dimethylphenoxy)-5-(2-hydroxypropan-2-yl)phenyl]-1-methyl-2-oxo-1,2-dihydropyridin-4-yl}oxy)cyclohexyl]carbamate]
1320 | CCOC(=O)CN(C(=O)C1(C)CC1)[C@H]1CC[C@H](Oc2cc(=O)n(C)cc2-c2cc(C(C)(C)O)ccc2Oc2c(C)cc(F)cc2C)CC1 [Example 66, ethyl N-[trans-4-({5-[2-(4-fluoro-2,6-dimethylphenoxy)-5-(2-hydroxypropan-2-yl)phenyl]-1-methyl-2-oxo-1,2-dihydropyridin-4-yl}oxy)cyclohexyl]-N-(1-methylcyclopropane-1-carbonyl)glycinate]
1020 | CC(=O)N[C@H]1CC[C@H](Oc2cc(=O)n(C)cc2-c2cc(C(C)(C)O)ccc2Oc2c(C)cc(F)cc2C)CC1 [Example 3, N-[trans-4-({5-[2-(4-fluoro-2,6-dimethylphenoxy)-5-(2-hydroxypropan-2-yl)phenyl]-1-methyl-2-oxo-1,2-dihydropyridin-4-yl}oxy)cyclohexyl]acetamide]
982 | CC(=O)N[C@H]1CC[C@H](Oc2cc(=O)n(C)cc2-c2cc(C(C)(C)O)ccc2Oc2c(C)cc(C(C)(C)O)cc2C)CC1 [Example 18, N-{trans-4-[(5-{5-(2-hydroxypropan-2-yl)-2-[4-(2-hydroxypropan-2-yl)-2,6-dimethylphenoxy]phenyl}-1-methyl-2-oxo-1,2-dihydropyridin-4-yl)oxy]cyclohexyl}acetamide]
553 | Cc1cccc(C)c1Oc1ccc(C(C)(C)O)cc1-c1cn(C)c(=O)cc1NC1CCN(S(C)(=O)=O)C1 (centres unmarked) [Example 12, 5-[2-(2,6-dimethylphenoxy)-5-(2-hydroxypropan-2-yl)phenyl]-4-{[1-(methanesulfonyl)pyrrolidin-3-yl]amino}-1-methylpyridin-2(1H)-one]
